This assay concerns TNF-alpha release in THP-1 cells. Put plainly: LPS-induced TNF-alpha release in THP-1 cells. In kind it is cell-based. The following applies: Homo sapiens, THP-1, LPS-stimulated THP-1 cells; read-out: 50% inhibition in the LPS-induced TNF-alpha release in THP-1 cells assay at concentrations within the range. The method, then:
The effects of compounds on TNF-alpha production by lipopolysaccharide (LPS)-stimulated […] monocytes were examined as follows.
Undifferentiated THP-1 cells were maintained in RPMI 1640 with Glutamax I containing β-mercaptoethananol (50 μM) and foetal calf serum (FCS-10%) at densities of about 1×10^6 cells per ml. For incubations without and with test reagents, cells were seeded at the indicated densities under serum-deprived (1% FCS) conditions. Compounds were dissolved in dimethylsulfoxide (DMSO-100%) and incubated with the cells to give a fmal DMSO concentration of 0.3%. Control and untreated cell samples were incubated with DMSO (0.3%).
THP-1 cells (1×10 ^6 cells/ml, total volume 150 μl) in culture medium were incubated for 1 hour (5% CO2, 37° C.) with fresh medium containing compounds or vehicle (0.1-0.3% dimethylsulfoxide). LPS (20 μg/ml) was then added to the cells and the incubation continued for a fuirther 18 hours. Cell supernatants were removed into 96 well plates for storage at −20° C.
TNF-alpha concentrations in cell supernatants were quantified by sandwich ELISA. Briefly, ELISA plates were coated overnight with 2 μg/ml of mouse anti-human TNF-alpha antibody in bicarbonate buffer (pH 9.9). After washing the wells with wash buffer (0.05% (v/v) Tween in PBS)and blocking unoccupied sites (1% BSA in wash buffer), monocyte supernatant samples or human recombinant TNF-alpha standards were added into the corresponding wells of the ELISA plate at 1:10 dilution. Biotinylated rabbit polyclonal anti-human TNF-alpha antibody (3 μg/ml) was used as the second antibody and streptavidin-horseradish peroxidase was used as the detection antibody. The peroxidase substrate is 3,3′,5,5′-tetramethylbenzidine (TMB) in the presence of hydrogen peroxide.
TNFα concentrations in supernatants from control and LPS-stimulated monocyte incubations were calculated by interpolation from a standard (log/log) curve (0.125-16 ng/ml) fitted by Excel Fit using the Activity Base software. Compounds were tested within the concentration range of 1×10^−9M to 1×10^−6M.

Molecules are shown by their SMILES.

With `COc1ccc(OC)c(S(=O)(=O)N2CCC(Cc3ccc(NC(=O)Nc4cc(C(C)(C)C)nn4-c4ccc(C)cc4)cc3)CC2)c1` [Compound A564, 1-(5-tert-Butyl-2-p-tolyl-2H-pyrazol-3-yl)-3-{4-[1-(2,5-dimethoxy-benzenesulfonyl)-piperidin-4-ylmethyl]-phenyl}-urea], the IC50 was in the range of 10 to 500 nM.
As for `COc1ccc(OC)c(C(=O)N2C3CCC2CC(Cc2ccc(NC(=O)Nc4cc(C(C)(C)C)nn4-c4ccc(C)cc4)cc2)C3)c1` (stereo not shown) [Compound A1647, 1-(5-tert-Butyl-2-p-tolyl-2H-pyrazol-3-yl)-3-{4-[8-(2,5-dimethoxy-benzoyl)-8-aza-bicyclo[3.2.1]oct-3-ylmethyl]-phenyl}-urea], the figure is 10 to 500 nM.
The figure for `COc1ccc(OCC(=O)N2CCC(Cc3cccc(NC(=O)Nc4cc(C(C)(C)C)nn4-c4ccc(C)cc4)c3)CC2)cc1` [Compound A121, 1-(5-tert-Butyl-2-p-tolyl-2H-pyrazol-3-yl)-3-(3-{1-[2-(4-methoxy-phenoxy)-acetyl]-piperidin-4-ylmethyl}-phenyl)-urea] is 10 to 500 nM; for `Cc1ccc(-n2nc(C(C)(C)C)cc2NC(=O)Nc2ccc(CC3CCN(C(=O)c4cnc5ccccc5n4)CC3)cc2)cc1` [Compound A257, 1-(5-tert-Butyl-2-p-tolyl-2H-pyrazol-3-yl)-3-{4-[1-(quinoxaline-2-carbonyl)-piperidin-4-ylmethyl]-phenyl}-urea] it is 10 to 500 nM; for `Cc1ccc(-n2nc(C(C)(C)C)cc2NC(=O)Nc2cccc(CC3CCN(C(=O)c4ccc5ncsc5c4)CC3)c2)cc1` [Compound A150, 1-{3-[1-(Benzothiazole-6-carbonyl)-piperidin-4-ylmethyl]-phenyl}-3-(5-tert-butyl-2-p-tolyl-2H-pyrazol-3-yl)-urea] it is 10 to 500 nM.
As to `CO[C@H](C(=O)N1CCC(Cc2ccc(NC(=O)Nc3cc(C(C)(C)C)nn3-c3ccc(C)cc3)cc2)CC1)c1ccccc1` [Compound A193, 1-(5-tert-Butyl-2-p-tolyl-2H-pyrazol-3-yl)-3-{4-[1-((S)-2-methoxy-2-phenyl-acetyl)-piperidin-4-ylmethyl]-phenyl}-urea], the IC50 lay within 10 to 500 nM.
The figure for `Cc1ccc(-n2nc(C(C)(C)C)cc2NC(=O)Nc2ccc(CC3CCN(C(=O)c4cccc(C(C)C#N)c4)CC3)cc2)cc1` (stereo not shown) [Compound A272, 1-(5-tert-Butyl-2-p-tolyl-2H-pyrazol-3-yl)-3-(4-{1-[3-(cyano-methyl-methyl)-benzoyl]-piperidin-4-ylmethyl}-phenyl)-urea] is 10 to 500 nM; for `Cc1ccc(-n2nc(C(C)(C)C)cc2NC(=O)Nc2cccc(CC3CCN(C(=O)c4ccc(Cl)s4)CC3)c2)cc1` [Compound A131, 1-(5-tert-Butyl-2-p-tolyl-2H-pyrazol-3-yl)-3-{3-[1-(5-chloro-thiophene-2-carbonyl)-piperidin-4-ylmethyl]-phenyl}-urea] it is 10 to 500 nM.
Regarding `Cc1ccc(-n2nc(C(C)(C)C)cc2NC(=O)Nc2ccc(CC3CCN(C(=O)c4cc5ccccc5o4)CC3)cc2)cc1` [Compound A232, 1-{4-[1-(Benzofuran-2-carbonyl)-piperidin-4-ylmethyl]-phenyl}-3-(5-tert-butyl-2-p-tolyl-2H-pyrazol-3-yl)-urea], the IC50 was in the range of 10 to 500 nM.
As to `Cc1ccc(-n2nc(C(C)(C)C)cc2NC(=O)Nc2cccc(CC3CC4CCC(C3)N4C(=O)Cc3ccc(F)cc3F)c2)cc1` (stereo not shown) [Compound A720, 1-(5-tert-Butyl-2-p-tolyl-2H-pyrazol-3-yl)-3-(3-{8-[2-(2,4-difluoro-phenyl)-acetyl]-8-aza-bicyclo[3.2.1]oct-3-ylmethyl}-phenyl)-urea], the IC50 lay within 10 to 500 nM.
For `Cc1ccc(-n2nc(C(C)(C)C)cc2NC(=O)Nc2ccc(CC3CCN(C(=O)c4c(C)cc(C)cc4C)CC3)cc2)cc1` [Compound A216, 1-(5-tert-Butyl-2-p-tolyl-2H-pyrazol-3-yl)-3-{4-[1-(2,4,6-trimethyl-benzoyl)-piperidin-4-ylmethyl]-phenyl}-urea], the IC50 fell in the range of 10 to 500 nM.
As to `COc1ccc(OCC(F)(F)F)c(C(=O)N2CCC(Cc3cccc(NC(=O)Nc4cc(C(C)(C)C)nn4-c4ccc(C)cc4)c3)CC2)c1` [Compound A132, 1-(5-tert-Butyl-2-p-tolyl-2H-pyrazol-3-yl)-3-(3-{1-[5-methoxy-2-(2,2,2-trifluoro-ethoxy)-benzoyl]-piperidin-4-ylmethyl}-phenyl)-urea], the IC50 fell in the range of 10 to 500 nM.
The figure for `COc1ccc(CC(=O)N2CCC(Cc3cccc(NC(=O)Nc4cc(C(C)(C)C)nn4-c4ccc(C)cc4)c3)CC2)cc1` [Compound A122, 1-(5-tert-Butyl-2-p-tolyl-2H-pyrazol-3-yl)-3-(3-{1-[2-(4-methoxy-phenyl)-acetyl]-piperidin-4-ylmethyl}-phenyl)-urea] is 10 to 500 nM; for `Cc1ccc(-n2nc(C(C)(C)C)cc2NC(=O)Nc2cccc(CC3CCN(C(=O)c4ccoc4)CC3)c2)cc1` [Compound A92, 1-(5-tert-Butyl-2-p-tolyl-2H-pyrazol-3-yl)-3-{3-[1-(furan-3-carbonyl)-piperidin-4-ylmethyl]-phenyl}-urea] it is 10 to 500 nM; for `Cc1ccc(-n2nc(C(C)(C)C)cc2NC(=O)Nc2ccc(CC3CCN(C(=O)c4ccc(OC(F)F)cc4)CC3)cc2)cc1` [Compound A306, 1-(5-tert-Butyl-2-p-tolyl-2H-pyrazol-3-yl)-3-{4-[1-(4-difluoromethoxy-benzoyl)-piperidin-4-ylmethyl]-phenyl}-urea] it is 10 to 500 nM.
The figure for `Cc1ccc(-n2nc(C(C)(C)C)cc2NC(=O)Nc2ccc(CC3CCN(S(=O)(=O)c4ccccc4Cl)CC3)cc2)cc1` [Compound A567, 1-(5-tert-Butyl-2-p-tolyl-2H-pyrazol-3-yl)-3-{4-[1-(2-chloro-benzenesulfonyl)-piperidin-4-ylmethyl]-phenyl}-urea] is 10 to 500 nM; for `Cc1ccc(-n2nc(C(C)(C)C)cc2NC(=O)Nc2ccc(CC3CCN(C(=O)C4=Cc5occc5CC4)CC3)cc2)cc1` [Compound A1642, 1-(5-tert-Butyl-2-p-tolyl-2H-pyrazol-3-yl)-3-{4-[1-(4,5-dihydro-benzofuran-6-carbonyl)-piperidin-4-ylmethyl]-phenyl}-urea] it is 10 to 500 nM; for `Cc1ccc(-n2nc(C(C)(C)C)cc2NC(=O)Nc2ccc(CC3CCN(C(=O)c4cccnc4Cl)CC3)cc2)cc1` [Compound A235, 1-(5-tert-Butyl-2-p-tolyl-2H-pyrazol-3-yl)-3-{4-[1-(2-chloro-pyridine-3-carbonyl)-piperidin-4-ylmethyl]-phenyl}-urea] it is 10 to 500 nM.
The figure for `Cc1ccc(-n2nc(C(C)(C)C)cc2NC(=O)Nc2ccc(CC3CCN(C(=O)CCc4ccccc4)CC3)cc2)cc1` [Compound A354, 1-(5-tert-Butyl-2-p-tolyl-2H-pyrazol-3-yl)-3-{4-[1-(3-phenyl-propionyl)-piperidin-4-ylmethyl]-phenyl}-urea] is 10 to 500 nM.
As for `Cc1ccc(-n2nc(C(C)(C)C)cc2NC(=O)Nc2ccc(CC3CCN(C(=O)c4ccco4)CC3)cc2)cc1` [Compound A237, 1-(5-tert-Butyl-2-p-tolyl-2H-pyrazol-3-yl)-3-{4-[1-(furan-2-carbonyl)-piperidin-4-ylmethyl]-phenyl}-urea], the IC50 fell in the range of 10 to 500 nM.
Regarding `Cc1ccc(-n2nc(C(C)(C)C)cc2NC(=O)Nc2ccc(CC3CCN(C(=O)c4cccnc4N)CC3)cc2)cc1` [Compound A231, 1-{4-[1-(2-Amino-pyridine-3-carbonyl)-piperidin-4-ylmethyl]-phenyl}-3-(5-tert-butyl-2-p-tolyl-2H-pyrazol-3-yl)-urea], the IC50 fell in the range of 10 to 500 nM.
The figure for `COc1cccc(C(=O)N2CCC(Cc3ccc(NC(=O)Nc4cc(C(C)(C)C)nn4-c4ccc(C)cc4)cc3)CC2)c1OC` [Compound A212, 1-(5-tert-Butyl-2-p-tolyl-2H-pyrazol-3-yl)-3-{4-[1-(2,3-dimethoxy-benzoyl)-piperidin-4-ylmethyl]-phenyl}-urea] is 10 to 500 nM; for `Cc1ccc(-n2nc(C(C)(C)C)cc2NC(=O)Nc2ccc(CC3CCN(C(=O)c4ccoc4C)CC3)cc2)cc1` [Compound A244, 1-(5-tert-Butyl-2-p-tolyl-2H-pyrazol-3-yl)-3-{4-[1-(2-methyl-furan-3-carbonyl)-piperidin-4-ylmethyl]-phenyl}-urea] it is 10 to 500 nM.
The figure for `COc1ccccc1CC(=O)N1C2CCC1CC(Cc1ccc(NC(=O)Nc3cc(C(C)(C)C)nn3-c3ccc(C)cc3)cc1)C2` (stereo not shown) [Compound A1404, 1-(5-tert-Butyl-2-p-tolyl-2H-pyrazol-3-yl)-3-(4-{8-[2-(2-methoxy-phenyl)-acetyl]-8-aza-bicyclo[3.2.1]oct-3-ylmethyl}-phenyl)-urea] is 10 to 500 nM.
As for `COc1ccccc1CCC(=O)N1CCC(Cc2cccc(NC(=O)Nc3cc(C(C)(C)C)nn3-c3ccc(C)cc3)c2)CC1` [Compound A82, 1-(5-tert-Butyl-2-p-tolyl-2H-pyrazol-3-yl)-3-(3-{1-[3-(2-methoxy-phenyl)-propionyl]-piperidin-4-ylmethyl}-phenyl)-urea], the figure is 10 to 500 nM.

The values above are taken from patent publication US7541368B2, “Pyrazoles as inhibitors of tumor necrosis factor” (Aventis Pharmaceuticals Inc., priority 2003, dated 2009).
